According to US12304890B2, “R-type pyridyloxycarboxylic acid, salt and ester derivative thereof, and preparation method therefor, and herbicidal composition and application thereof” (Qingdao Kingagroot Chemical Compound Co., Ltd., priority 2018, dated 2025):

Assays:
Type in all cases: in vivo
rice (japonica rice) = assay: Transplanted rice safety evaluation; conditions: transplanted 3-leaf japonica rice, 1000 g a.i./ha, 21 days after treatment
Protocol: In addition, the rice field soil that loaded into the 1/1,000,000 ha pot was leveled to keep water storage at 3-4 cm depth. The 3-leaf stage rice (japonica rice) was transplanted at 3 cm of transplanting depth the next day. The compound of the present invention was treated by the same way after 5 days of transplantation.
(§1) The fertility condition of Monochoria vaginalis 14 days and rice 21 days after the treatment of the compound of the invention with the naked eye.

Digitaria sanguinalis = assay: Post-emergence test experiment, Digitaria sanguinalis; conditions: for Activity level (growth inhibition rate), Digitaria sanguinalis: 1000 g a.i./ha, 3 weeks in greenhouse, fresh weight inhibition
Procedure, shortened: (§2)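 Test compounds dissolve in acetone, receive tween-80 and a methyl oleate emulsible concentrate synergist (1.5 liters per hectare), then are diluted in water and sprayed onto 2-3 leaf stage plants. After 3 weeks of greenhouse culture, fresh weight inhibition is determined.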

rice = assay: Post-emergence test experiment, rice (crop selectivity); conditions: 200 g a.i./ha, 3 weeks
Procedure, shortened: as §2

[1] = system: Semen Euphorbiae Lathyridis; assay: Post-emergence test experiment, Semen Euphorbiae Lathyridis; conditions: 200 g a.i./ha, 3 weeks, weed resistant to cyhalofop-butyl
Procedure, shortened: as §2

[2] = system: Monocotyledonous and dicotyledonous weed seeds and main crop seeds; assay: Post-emergence test experiment, other weeds and crops (Table 4, 1000 g a.i./ha); conditions: 3 weeks in greenhouse, fresh weight inhibition
Procedure, shortened: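 Growth inhibition is scored on fresh weight. Spray solutions were made in acetone with tween-80, diluted in water, plus 1.5 L/ha methyl oleate emulsible concentrate. Plants from greenhouse-grown weed and crop seeds were treated post-emergence at 2-3 leaves, 2 weeks after sowing.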

Echinochloa crusgalli = assay: Post-emergence test experiment, Echinochloa crusgalli; conditions: for Activity level (growth inhibition rate), Echinochloa crusgalli: 1000 g a.i./ha, 3 weeks in greenhouse, fresh weight inhibition
Procedure, shortened: as §2

Monochoria vaginalis = assay: Weed control effect evaluation in rice field; conditions: paddy pot, 0.5 leaf stage, 14 days, weed resistant to pyrazosulfuron-ethyl and penoxsulam
Protocol: Rice field soil was loaded into a 1/1,000,000 ha pot. The seeds of Monochoria vaginalis were sowed and gently covered with soil, then left to stand still in greenhouse in the state of 0.5-1 cm of water storage. It was kept at 3-4 cm of water storage thereafter. The weeds were treated by dripping the WP or SC water diluents prepared according to the common preparation method of the compounds of the present invention with pipette homogeneously to achieve specified effective amount when Monochoria vaginalis reached 0.5 leaf stage.
as §1

[3] = 200 g a.i./ha, 3 weeks, weed resistant to cyhalofop-butyl
[4] = 200 g a.i./ha, 3 weeks, weed resistant to ALS inhibitor and ACCe herbicides

C[C@@H](Oc1nc(F)c(Cl)c(N)c1Cl)C(=O)SCc1ccccn1 [Compound 2-343]
rice, safety level 0-5 (rice (japonica rice)): 0 (Level 0: the growth inhibition rate is less than 5%)
Digitaria sanguinalis, activity level (growth inhibition rate) (Digitaria sanguinalis; [3]): 5 (Level 5: the growth inhibition rate is greater than 85%)
Activity level (growth inhibition rate), Digitaria sanguinalis (Digitaria sanguinalis): 5 (Level 5: the growth inhibition rate is greater than 85%)
rice, activity level (growth inhibition rate) (rice): 0 (Level 0: the growth inhibition rate is less than 5%)
Semen Euphorbiae Lathyridis, activity level (growth inhibition rate) [1]: 5 (Level 5: the growth inhibition rate is greater than 85%)
Activity level (growth inhibition rate), Abutilon theophrasti Medic. [2]: 5 (Level 5: the growth inhibition rate is greater than 85%)
Activity level (growth inhibition rate), Galium aparine [2]: 5 (Level 5: the growth inhibition rate is greater than 85%)
Activity level (growth inhibition rate), Monochoria Vaginalis [2]: 5 (Level 5: the growth inhibition rate is greater than 85%)
Echinochloa crusgalli, activity level (growth inhibition rate) (Echinochloa crusgalli; [4]): 5 (Level 5: the growth inhibition rate is greater than 85%)
Activity level (growth inhibition rate), Echinochloa crusgalli (Echinochloa crusgalli): 5 (Level 5: the growth inhibition rate is greater than 85%)
Monochoria Vaginalis, activity level 0-5 (Monochoria vaginalis; 1000 g a.i./ha): 5 (Level 5: the growth inhibition rate is greater than 85%)

CCOC(=O)COC(=O)C(C)Oc1nc(F)c(Cl)c(N)c1Cl (stereo not shown) [Compound 2-294]
rice, safety level 0-5 (rice (japonica rice)): 0 (Level 0: the growth inhibition rate is less than 5%)
Digitaria sanguinalis, activity level (growth inhibition rate) (Digitaria sanguinalis; [3]): 5 (Level 5: the growth inhibition rate is greater than 85%)
Activity level (growth inhibition rate), Digitaria sanguinalis (Digitaria sanguinalis): 5 (Level 5: the growth inhibition rate is greater than 85%)
rice, activity level (growth inhibition rate) (rice): 0 (Level 0: the growth inhibition rate is less than 5%)
Semen Euphorbiae Lathyridis, activity level (growth inhibition rate) [1]: 5 (Level 5: the growth inhibition rate is greater than 85%)
Activity level (growth inhibition rate), Abutilon theophrasti Medic. [2]: 5 (Level 5: the growth inhibition rate is greater than 85%)
Activity level (growth inhibition rate), Galium aparine [2]: 5 (Level 5: the growth inhibition rate is greater than 85%)
Activity level (growth inhibition rate), Monochoria Vaginalis [2]: 5 (Level 5: the growth inhibition rate is greater than 85%)
Echinochloa crusgalli, activity level (growth inhibition rate) (Echinochloa crusgalli; [4]): 5 (Level 5: the growth inhibition rate is greater than 85%)
Activity level (growth inhibition rate), Echinochloa crusgalli (Echinochloa crusgalli): 5 (Level 5: the growth inhibition rate is greater than 85%)
Monochoria Vaginalis, activity level 0-5 (Monochoria vaginalis; 1000 g a.i./ha): 5 (Level 5: the growth inhibition rate is greater than 85%)

CC(Oc1nc(F)c(Cl)c(N)c1Cl)C(=O)OCc1ccccc1 (stereo not shown) [Compound 2-300]
rice, safety level 0-5 (rice (japonica rice)): 0 (Level 0: the growth inhibition rate is less than 5%)
Digitaria sanguinalis, activity level (growth inhibition rate) (Digitaria sanguinalis; [3]): 5 (Level 5: the growth inhibition rate is greater than 85%)
Activity level (growth inhibition rate), Digitaria sanguinalis (Digitaria sanguinalis): 5 (Level 5: the growth inhibition rate is greater than 85%)
rice, activity level (growth inhibition rate) (rice): 0 (Level 0: the growth inhibition rate is less than 5%)
Semen Euphorbiae Lathyridis, activity level (growth inhibition rate) [1]: 5 (Level 5: the growth inhibition rate is greater than 85%)
Activity level (growth inhibition rate), Abutilon theophrasti Medic. [2]: 5 (Level 5: the growth inhibition rate is greater than 85%)
Activity level (growth inhibition rate), Galium aparine [2]: 5 (Level 5: the growth inhibition rate is greater than 85%)
Activity level (growth inhibition rate), Monochoria Vaginalis [2]: 5 (Level 5: the growth inhibition rate is greater than 85%)
Echinochloa crusgalli, activity level (growth inhibition rate) (Echinochloa crusgalli; [4]): 5 (Level 5: the growth inhibition rate is greater than 85%)
Activity level (growth inhibition rate), Echinochloa crusgalli (Echinochloa crusgalli): 5 (Level 5: the growth inhibition rate is greater than 85%)
Monochoria Vaginalis, activity level 0-5 (Monochoria vaginalis; 1000 g a.i./ha): 5 (Level 5: the growth inhibition rate is greater than 85%)

C[C@@H](Oc1nc(F)c(Cl)c(N)c1Cl)C(=O)OCc1ccco1 [Compound 2-348]
rice, safety level 0-5 (rice (japonica rice)): 0 (Level 0: the growth inhibition rate is less than 5%)
Digitaria sanguinalis, activity level (growth inhibition rate) (Digitaria sanguinalis; [3]): 5 (Level 5: the growth inhibition rate is greater than 85%)
Activity level (growth inhibition rate), Digitaria sanguinalis (Digitaria sanguinalis): 5 (Level 5: the growth inhibition rate is greater than 85%)
rice, activity level (growth inhibition rate) (rice): 0 (Level 0: the growth inhibition rate is less than 5%)
Semen Euphorbiae Lathyridis, activity level (growth inhibition rate) [1]: 5 (Level 5: the growth inhibition rate is greater than 85%)
Activity level (growth inhibition rate), Abutilon theophrasti Medic. [2]: 5 (Level 5: the growth inhibition rate is greater than 85%)
Activity level (growth inhibition rate), Galium aparine [2]: 5 (Level 5: the growth inhibition rate is greater than 85%)
Activity level (growth inhibition rate), Monochoria Vaginalis [2]: 5 (Level 5: the growth inhibition rate is greater than 85%)
Echinochloa crusgalli, activity level (growth inhibition rate) (Echinochloa crusgalli; [4]): 5 (Level 5: the growth inhibition rate is greater than 85%)
Activity level (growth inhibition rate), Echinochloa crusgalli (Echinochloa crusgalli): 5 (Level 5: the growth inhibition rate is greater than 85%)
Monochoria Vaginalis, activity level 0-5 (Monochoria vaginalis; 1000 g a.i./ha): 5 (Level 5: the growth inhibition rate is greater than 85%)

C[C@@H](Oc1nc(F)c(Cl)c(N)c1Cl)C(=O)SCc1ccc(Cl)cc1 [Compound 2-319]
rice, safety level 0-5 (rice (japonica rice)): 0 (Level 0: the growth inhibition rate is less than 5%)
Activity level (growth inhibition rate), Digitaria sanguinalis (Digitaria sanguinalis): 5 (Level 5: the growth inhibition rate is greater than 85%)
inhibition at 200 g/ha (Digitaria sanguinalis; Digitaria sanguinalis, 504 h, 200 g a.i./ha, 3 weeks, weed resistant to cyhalofop-butyl, read-out: Digitaria sanguinalis, activity level (growth inhibition rate)): > 85%
rice, activity level (growth inhibition rate) (rice): 0 (Level 0: the growth inhibition rate is less than 5%)
inhibition at 200 g/ha ([1]; 504 h, read-out: Semen Euphorbiae Lathyridis, activity level (growth inhibition rate)): > 85%
Activity level (growth inhibition rate), Abutilon theophrasti Medic. [2]: 5 (Level 5: the growth inhibition rate is greater than 85%)
Activity level (growth inhibition rate), Galium aparine [2]: 5 (Level 5: the growth inhibition rate is greater than 85%)
Activity level (growth inhibition rate), Monochoria Vaginalis [2]: 5 (Level 5: the growth inhibition rate is greater than 85%)
Activity level (growth inhibition rate), Echinochloa crusgalli (Echinochloa crusgalli): 5 (Level 5: the growth inhibition rate is greater than 85%)
inhibition at 200 g/ha (Echinochloa crusgalli; Echinochloa crus-galli, 504 h, 200 g a.i./ha, 3 weeks, weed resistant to ALS inhibitor and ACCe herbicides, read-out: Echinochloa crusgalli, activity level (growth inhibition rate)): > 85%
Monochoria Vaginalis, activity level 0-5 (Monochoria vaginalis; 1000 g a.i./ha): 5 (Level 5: the growth inhibition rate is greater than 85%)

CSC(=O)[C@@H](C)Oc1nc(F)c(Cl)c(N)c1Cl [Compound 2-70]
rice, safety level 0-5 (rice (japonica rice)): 0 (Level 0: the growth inhibition rate is less than 5%)
Digitaria sanguinalis, activity level (growth inhibition rate) (Digitaria sanguinalis; [3]): 5 (Level 5: the growth inhibition rate is greater than 85%)
Activity level (growth inhibition rate), Digitaria sanguinalis (Digitaria sanguinalis): 5 (Level 5: the growth inhibition rate is greater than 85%)
rice, activity level (growth inhibition rate) (rice): 0 (Level 0: the growth inhibition rate is less than 5%)
Semen Euphorbiae Lathyridis, activity level (growth inhibition rate) [1]: 5 (Level 5: the growth inhibition rate is greater than 85%)
Activity level (growth inhibition rate), Abutilon theophrasti Medic. [2]: 5 (Level 5: the growth inhibition rate is greater than 85%)
Activity level (growth inhibition rate), Galium aparine [2]: 5 (Level 5: the growth inhibition rate is greater than 85%)
Activity level (growth inhibition rate), Monochoria Vaginalis [2]: 5 (Level 5: the growth inhibition rate is greater than 85%)
Echinochloa crusgalli, activity level (growth inhibition rate) (Echinochloa crusgalli; [4]): 5 (Level 5: the growth inhibition rate is greater than 85%)
Activity level (growth inhibition rate), Echinochloa crusgalli (Echinochloa crusgalli): 5 (Level 5: the growth inhibition rate is greater than 85%)
Monochoria Vaginalis, activity level 0-5 (Monochoria vaginalis; 1000 g a.i./ha): 5 (Level 5: the growth inhibition rate is greater than 85%)

COc1cnc(OC)n2nc(NS(=O)(=O)c3c(OCC(F)F)cccc3C(F)(F)F)nc12 [penoxsulam, reference compound]
Monochoria Vaginalis, activity level 0-5 (Monochoria vaginalis; 50 g a.i./ha): 1 (Level 1: the growth inhibition rate is equal to or greater than 5% and less than 20%)
